Laboratory results reported in the Kinase Knowledgebase extract (Sharma et al. 2016).

The molecules below were run against EGFR (human) (UniProt P00533).
Sequence of EGFR (human) (P00533 whole entry, looked up): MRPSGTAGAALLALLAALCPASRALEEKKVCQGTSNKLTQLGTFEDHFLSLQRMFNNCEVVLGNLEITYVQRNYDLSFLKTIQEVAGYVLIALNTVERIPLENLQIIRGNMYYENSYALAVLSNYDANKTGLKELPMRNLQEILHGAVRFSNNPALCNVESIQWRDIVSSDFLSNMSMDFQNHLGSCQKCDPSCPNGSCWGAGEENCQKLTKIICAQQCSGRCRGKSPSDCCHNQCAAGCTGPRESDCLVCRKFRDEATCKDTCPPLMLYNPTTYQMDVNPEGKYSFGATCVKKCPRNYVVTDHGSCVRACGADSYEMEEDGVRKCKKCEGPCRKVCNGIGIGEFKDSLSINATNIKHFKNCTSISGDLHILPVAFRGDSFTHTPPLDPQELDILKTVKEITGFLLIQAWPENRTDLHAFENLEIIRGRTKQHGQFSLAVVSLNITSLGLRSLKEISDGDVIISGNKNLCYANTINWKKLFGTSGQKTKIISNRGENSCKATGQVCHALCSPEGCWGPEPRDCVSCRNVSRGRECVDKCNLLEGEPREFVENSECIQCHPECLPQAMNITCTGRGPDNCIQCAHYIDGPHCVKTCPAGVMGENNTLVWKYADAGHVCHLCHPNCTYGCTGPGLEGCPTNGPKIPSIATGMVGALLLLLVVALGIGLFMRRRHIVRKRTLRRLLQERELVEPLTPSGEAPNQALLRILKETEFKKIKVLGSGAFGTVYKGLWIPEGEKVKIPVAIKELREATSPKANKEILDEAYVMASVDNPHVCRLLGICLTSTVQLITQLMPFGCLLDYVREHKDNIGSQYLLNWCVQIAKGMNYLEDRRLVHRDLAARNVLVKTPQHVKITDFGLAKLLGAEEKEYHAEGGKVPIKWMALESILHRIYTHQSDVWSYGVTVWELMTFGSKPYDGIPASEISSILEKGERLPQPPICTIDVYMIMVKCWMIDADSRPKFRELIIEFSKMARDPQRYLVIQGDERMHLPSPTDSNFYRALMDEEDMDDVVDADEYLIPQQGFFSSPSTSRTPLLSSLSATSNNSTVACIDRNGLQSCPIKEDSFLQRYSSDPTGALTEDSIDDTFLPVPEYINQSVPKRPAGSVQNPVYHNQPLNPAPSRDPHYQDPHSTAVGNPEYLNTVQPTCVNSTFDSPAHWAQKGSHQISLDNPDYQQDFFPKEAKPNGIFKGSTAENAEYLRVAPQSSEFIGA

| IC50 | SMILES |
| --- | --- |
| 1 nM | c1cn(CCCc2ccc(-c3cc4ncnc(Nc5ccc6[nH]ccc6c5)c4s3)cc2)cn1 |
| 8 nM | CC(C)(CO)NCc1ccc(-c2cc3nccc(Nc4ccc5[nH]ccc5c4)c3s2)cc1 |
| 5 nM | CC(=O)NCCNCc1ccc(-c2cc3nccc(Nc4ccc5[nH]ccc5c4)c3s2)cc1 |
| 5 nM | c1cn(CCCc2ccc(-c3cc4nccc(Nc5ccc6[nH]ccc6c5)c4s3)cc2)cn1 |

Second part, the molecule before the results:

| SMILES | IC50 |
| --- | --- |
| c1nc(Nc2ccc3[nH]ccc3c2)c2sc(-c3ccc(NCCN4CCCC4)cc3)cc2n1 | 1 nM |
| NC(=O)C1CCN(Cc2ccc(-c3cc4nccc(Nc5ccc6[nH]ccc6c5)c4s3)cc2)CC1 | 7 nM |
| c1csc(-c2cc3nccc(Nc4ccc5[nH]ccc5c4)c3s2)c1 | 39 nM |
| NC(=O)C1CCN(Cc2ccc(-c3cc4ncnc(Nc5ccc6[nH]ccc6c5)c4s3)cc2)CC1 | 1 nM |
| CC(=O)NCCNCc1ccc(-c2cc3ncnc(Nc4ccc5[nH]ccc5c4)c3s2)cc1 | 2 nM |
| c1ccc(-c2cc3nccc(Nc4ccc5[nH]ccc5c4)c3s2)cc1 | 68 nM |
